According to patent publication US9308198B2, “Treatment, prevention, and reversal of alcohol-induced brain disease” (priority 2006, dated 2016):

What was measured:
IGF-II receptors = details: pup cerebellar membrane extracts, chronic gestational ethanol exposure relative to control; not dose-dependent
Protocol: (§2) Fresh frozen tissue (˜100 mg) was homogenized in 5 volumes of NP-40 lysis buffer (50 mM Tris-HCl, pH 7.5, 1% NP-40, 150 mM NaCl, 1 mM EDTA, 2 mM EGTA) containing protease inhibitors (1 mM PMSF, 0.1 mM TPCK, 1 μg/ml aprotinin, 1 μg/ml pepstatin A, 0.5 μg/ml leupeptin, 1 mM NaF, 1 mM Na4P2O7). Protein concentrations were determined using the bicinchoninic acid (BCA) assay (Pierce, Rockford, Ill.). Exploratory studies determined the amounts of protein and concentrations of radiolabeled ligand required to achieve 20% specific binding. Insulin receptor binding assays were performed using 100 μg protein. IGF-I binding assays required 25 μg protein per sample, and IGF-II receptor binding assays were optimized using 10 μg protein. […]
(§3) All reactions were performed in 1.5 ml Eppendorff tubes, and the incubations were performed at 4° C. for 16 hours with gentle platform agitation. […] The samples were counted for 1 minute in an LKB CompuGamma CS Gamma counter. Specific binding was calculated by subtracting fmol of non-specific binding, i.e., amount bound in the presence of cold ligand, from the total fmol bound (absence of unlabeled competitive ligand). The results were analyzed and plotted using the GraphPad Prism 4 software (GraphPad Software, Inc., San Diego, Calif.).

[1] = system: primary cerebellar neuron cultures; test: Membrane cholesterol content, primary cerebellar neuron cultures; format: cell-based, rat; details: for membrane cholesterol content: 10 mM for 3 hours in Locke's buffer, control and ethanol-exposed cerebellar cultures
Protocol: (§1) In vitro experiments were used to examine the effects of ethanol on receptor binding and choline acetyltransferase (ChAT) and acetylcholinesterase (AChE) expression in cerebellar neurons. Primary neuronal cultures were generated with postnatal day 8 rat pup cerebellar tissue (Nikolic et al. Genes Dev. 10:816 (1996)). The cultures were maintained with Dulbecco's modified Eagle's medium (DMEM) supplemented with 5% fetal calf serum, 4 mM glutamine, 100 μM non-essential amino acid mixture (Gibco-BRL, Grand Island, N.Y.), 25 mM KCl, and 9 g/L glucose. Ethanol treatment was accomplished by placing the cultures (seeded in 6-well dishes or 96-well plates) in sealed chambers in which 50 mM ethanol was vaporized from a reservoir tray (de la Monte et al. Alcohol Clin. Exp. Res. 24:716 (2000); Banerjee et al. Alcohol Clin. Exp. Res. 22:2093 (1998)). Control cultures were identically treated but with water added to the reservoir tray. The chambers were flushed with gas containing 75% nitrogen, 20% oxygen, and 5% carbon dioxide. After 96 hours incubation at 37° C., the cells were harvested to measure insulin, IGF-I, and IGF-II receptor binding. […] To examine the effects of membrane cholesterol content on growth factor stimulated neuronal viability and function, identically treated 96-well cultures were stimulated with vehicle, 10 nM insulin, 10 nM IGF-I, or 25 nM IGF-II for 10 minutes and then analyzed for ATP content, or for 16 hours and then used to measure viability and ChAT or AChE immunoreactivity with the MICE assay (de la Monte et al., Biotechniques 26:1073 (1999)). ATP content was measured with the ATPLite assay (Packard, Meriden, Conn.). Viability was measured using the CyQuant assay (Molecular Probes, Eugene, Oreg.). Immunoreactivity was measured directly in the cultured wells using the microtiter immunocytochemical ELISA (MICE) assay (de la Monte et al., Biotechniques 26:1073 (1999)).

insulin receptors = details: pup cerebellar membrane extracts, chronic gestational ethanol exposure relative to control; not dose-dependent
Protocol: as §2, §3

ChAT = ChAT immunoreactivity (MICE assay); format: cell-based, rat
Protocol: In vitro experiments were used to examine the effects of ethanol on receptor binding and choline acetyltransferase (ChAT) and acetylcholinesterase (AChE) expression in cerebellar neurons. Primary neuronal cultures were generated with postnatal day 8 rat pup cerebellar tissue (Nikolic et al. Genes Dev. 10:816 (1996)). The cultures were maintained with Dulbecco's modified Eagle's medium (DMEM) supplemented with 5% fetal calf serum, 4 mM glutamine, 100 μM non-essential amino acid mixture (Gibco-BRL, Grand Island, N.Y.), 25 mM KCl, and 9 g/L glucose. Ethanol treatment was accomplished by placing the cultures (seeded in 6-well dishes or 96-well plates) in sealed chambers in which 50 mM ethanol was vaporized from a reservoir tray (de la Monte et al. Alcohol Clin. Exp. Res. 24:716 (2000); Banerjee et al. Alcohol Clin. Exp. Res. 22:2093 (1998)). Control cultures were identically treated but with water added to the reservoir tray. The chambers were flushed with gas containing 75% nitrogen, 20% oxygen, and 5% carbon dioxide. After 96 hours incubation at 37° C., the cells were harvested to measure insulin, IGF-I, and IGF-II receptor binding. Alternatively, the cells were serum-starved for 12 hours and then stimulated with 10 nM insulin, […], 25 nM IGF-II, or vehicle for 16 hours, and RNA was harvested to measure ChAT and AChE expression. Parallel 96-well cultures stimulated with growth factors for 10 minutes were used to measure ATP, or for 16 hours to measure viability, and ChAT or AChE immunoreactivity. To investigate the role of membrane cholesterol content in relation to receptor binding, control and ethanol-exposed cells were treated with vehicle, 10 mM Methyl-β-cyclodextrin (MβCD), or 10 mM aqueous soluble cholesterol in Locke's buffer (154 mM NaCl, 5.6 mM KCl, 2.3 mM CaCl2, 1.0 mM MgCl2, 3.6 mM NaHCO3, 5 mM glucose, 5 mM Hepes, pH 7.4) for 3 hours and then harvested for binding assays. To examine the effects of membrane cholesterol content on growth factor stimulated neuronal viability and function, identically treated 96-well cultures were stimulated with vehicle, 10 nM insulin, 10 nM IGF-I, or 25 nM IGF-II for 10 minutes and then analyzed for ATP content, or for 16 hours and then used to measure viability and ChAT or AChE immunoreactivity with the MICE assay (de la Monte et al., Biotechniques 26:1073 (1999)). ATP content was measured with the ATPLite assay (Packard, Meriden, Conn.). Viability was measured using the CyQuant assay (Molecular Probes, Eugene, Oreg.). Immunoreactivity was measured directly in the cultured wells using the microtiter immunocytochemical ELISA (MICE) assay (de la Monte et al., Biotechniques 26:1073 (1999)).
The concentration of ethanol used was within the range detected in human alcoholics (Fulop et al., Am. J. Med. 80:191 (1986); Jagger et al., Neurosurgery 15:303 (1984)). ChAT and AChE immunoreactivity were measured directly in the cultured cells using the MICE assay (cellular ELISA), with values normalized to cell density.
The effects of cholesterol or MβCD treatment on neuronal viability (FIGS. 19A-19C), ATP production (energy metabolism; FIGS. 19D-19F), ChAT (FIGS. […]) and AChE (FIGS. 19J-19L) immunoreactivity were examined in cells that were treated as described above and stimulated 12 hours with vehicle (control), 10 nM insulin, 10 nM IGF-I, or 25 nM IGF-II in serum-free medium. All assays were performed using 96-well cultures. Viability was measured using the CyQuant assay and ATP content was measured using the ATPLite assay.

[2] = system: primary cerebellar neuron cultures; details: 10 mM for 3 hours; control and ethanol-exposed cultures
Protocol: as §1, with “binding. Alternatively, the cells were serum-starved for 12 hours and then stimulated with 10 nM insulin, […], 25 nM IGF-II, or vehicle for 16 hours, and RNA was harvested to measure ChAT and AChE expression. Parallel 96-well cultures stimulated with growth factors for 10 minutes were used to measure ATP, or for 16 hours to measure viability, and ChAT or AChE immunoreactivity.” for “binding.”
The effects of cholesterol or MβCD treatment on neuronal viability (FIGS. 19A-19C), ATP production (energy metabolism; FIGS. 19D-19F), ChAT (FIGS. […]) and AChE (FIGS. 19J-19L) immunoreactivity were examined in cells that were treated as described above and stimulated 12 hours with vehicle (control), 10 nM insulin, 10 nM IGF-I, or 25 nM IGF-II in serum-free medium. […] Viability was measured using the CyQuant assay and ATP content was measured using the ATPLite assay. […]

AChE = AChE immunoreactivity (MICE assay); format: cell-based; details: 10 mM for 3 hours; control and ethanol-exposed cells
Protocol: In vitro experiments were used to examine the effects of ethanol on receptor binding and choline acetyltransferase (ChAT) and acetylcholinesterase (AChE) expression in cerebellar neurons. Primary neuronal cultures were generated with postnatal day 8 rat pup cerebellar tissue (Nikolic et al. Genes Dev. 10:816 (1996)). The cultures were maintained with Dulbecco's modified Eagle's medium (DMEM) supplemented with 5% fetal calf serum, 4 mM glutamine, 100 μM non-essential amino acid mixture (Gibco-BRL, Grand Island, N.Y.), 25 mM KCl, and 9 g/L glucose. […] To examine the effects of membrane cholesterol content on growth factor stimulated neuronal viability and function, identically treated 96-well cultures were stimulated with vehicle, 10 nM insulin, 10 nM IGF-I, or 25 nM IGF-II for 10 minutes and then analyzed for ATP content, or for 16 hours and then used to measure viability and ChAT or AChE immunoreactivity with the MICE assay (de la Monte et al., Biotechniques 26:1073 (1999)). ATP content was measured with the ATPLite assay (Packard, Meriden, Conn.). Viability was measured using the CyQuant assay (Molecular Probes, Eugene, Oreg.). Immunoreactivity was measured directly in the cultured wells using the microtiter immunocytochemical ELISA (MICE) assay (de la Monte et al., Biotechniques 26:1073 (1999)). […]

[3] = 10 mM for 3 hours, control cells

Compound	impairment of IGF-II receptor binding (IGF-II receptors) [%]	cerebellar neuron membrane cholesterol content ([1]; in vitro exposure to 50 mM ethanol for 96 hours)	impairment of insulin receptor binding (insulin receptors) [%]	ChAT immunoreactivity (ChAT; 50 mM ethanol for 96 hours, basal, insulin-stimulated and IGF-I stimulated, relative to control)	membrane cholesterol content [1]	mitochondrial function (ATP content) [2]	neuronal viability [2]	basal and growth factor stimulated ChAT expression (ChAT; [3])	insulin-, IGF-I-, and IGF-II-stimulated levels of ChAT (ChAT; 10 mM for 3 hours, ethanol-exposed cells, relative to vehicle-treated cells)	mean levels of AChE (AChE)	IGF-I- and IGF-II-stimulated ChAT (ChAT; [3])	insulin-stimulated ChAT (ChAT; [3])	ChAT expression relative to control (ChAT; 10 mM for 3 hours, ethanol-exposed cells, independent of growth factor stimulation)
CCO [ethanol]	~50	significantly reduced	~80	significantly reduced									
CC(C)CCC[C@@H](C)[C@H]1CC[C@H]2[C@@H]3CC=C4C[C@@H](O)CC[C@]4(C)[C@H]3CC[C@]12C [cholesterol]					significantly increased	broadly reduced	broadly reduced	muted	significantly increased	significantly increased			
Methyl-β-cyclodextrin [MβCD]					significantly reduced	broadly reduced	broadly reduced			significantly increased	significantly increased	abolished the insulin-stimulated increases in ChAT	broadly reduced levels
